Results reported in patent publication US20240158446A1, “CYCLIC COMPOUND HAVING SELECTIVE INHIBITORY ACTION ON KRAS OVER HRAS AND NRAS” (CHUGAI SEIYAKU KABUSHIKI KAISHA, priority 2021, published 2024).
*1 amine or outer side, *2 acyl side, *3 side chain or, on linkers, in order; H or OH if unused. Where a SMILES comes first, the peptide text is derived from it. Bridges are numbered along the chain shown (N, C = ends). [ ]: non-standard residue; d: D form. The star is where a group is joined. hPhe(3-Cl-4-CF3) = N[C@@H](CCc1ccc(C(F)(F)F)c(Cl)c1)C(=O)O; NEtPhe(4-CF3) = CCN[C@@H](Cc1ccc(C(F)(F)F)cc1)C(=O)O; NEtPhe(4-Me) = CCN[C@@H](Cc1ccc(C)cc1)C(=O)O; NMePhe(4-Me) = CN[C@@H](Cc1ccc(C)cc1)C(=O)O; X7 = CCN([C@H](C(=O)[*:2])C1CCCC1)[*:1]; NMeGly(cPent) = CN[C@H](C(=O)O)C1CCCC1; NMeD = CN[C@@H](CC(=O)O)C(=O)O; NMeL = CN[C@@H](CC(C)C)C(=O)O; Morpholide = C1CN(*)CCO1; Ac5c = NC1(C(=O)O)CCCC1; NBuGly = CCCCNCC(=O)O; NPrGly = CCCNCC(=O)O; NEtG = CCNCC(=O)O; Sar = CNCC(=O)O

Experiments:
[1] = target: GDP-bound NRAS wild-type protein (Homo sapiens, UniProt P01111); experiment: Binding to NRAS by surface plasmon resonance (SPR), Single Cycle Kinetics; details: SPR, GDP-bound NRAS wild-type protein vs GDP-bound KRAS wild-type protein
GDP-bound NRAS wild-type protein, sequence (P01111 whole entry): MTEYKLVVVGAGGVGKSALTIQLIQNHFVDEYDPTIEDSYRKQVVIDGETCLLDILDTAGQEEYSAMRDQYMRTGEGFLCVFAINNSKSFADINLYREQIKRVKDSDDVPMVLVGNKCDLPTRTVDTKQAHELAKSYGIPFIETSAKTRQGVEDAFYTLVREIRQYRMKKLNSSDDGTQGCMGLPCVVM

[2] = target: GDP-bound KRAS wild-type protein (Homo sapiens, UniProt P01116); experiment: Binding to KRAS by surface plasmon resonance (SPR), Single Cycle Kinetics; details: SPR Single Cycle Kinetics, GDP-bound KRAS wild-type protein, 1:1 binding model; read-out: KRAS KD
GDP-bound KRAS wild-type protein, sequence (P01116 whole entry): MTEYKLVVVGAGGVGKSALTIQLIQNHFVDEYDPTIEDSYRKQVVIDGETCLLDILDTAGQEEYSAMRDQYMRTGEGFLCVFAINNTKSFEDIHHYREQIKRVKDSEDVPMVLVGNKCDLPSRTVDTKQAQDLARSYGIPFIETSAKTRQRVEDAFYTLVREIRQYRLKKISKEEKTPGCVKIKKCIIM

[3] = target: GDP-bound HRAS wild-type protein (Homo sapiens, UniProt P01112); experiment: Binding to HRAS by surface plasmon resonance (SPR), Single Cycle Kinetics; details: SPR, GDP-bound HRAS wild-type protein vs GDP-bound KRAS wild-type protein
GDP-bound HRAS wild-type protein, sequence (P01112 whole entry): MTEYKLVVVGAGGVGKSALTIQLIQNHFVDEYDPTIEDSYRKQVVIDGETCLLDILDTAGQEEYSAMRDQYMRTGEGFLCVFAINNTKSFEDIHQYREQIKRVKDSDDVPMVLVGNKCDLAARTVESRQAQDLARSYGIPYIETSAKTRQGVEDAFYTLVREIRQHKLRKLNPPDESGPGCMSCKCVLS

Row | SMILES | NRAS/KRAS (ratio of KD value for NRAS to KD value for KRAS) [1] | Kd [2] [nM] | HRAS/KRAS (ratio of KD value for HRAS to KD value for KRAS) [3]
1 | CC[C@H](C)[C@@H]1NC(=O)[C@H](CC(C)C)N(C)C(=O)C[C@@H](C(=O)N2CCOCC2)N(C)C(=O)[C@H](C2CCCC2)N(C)C(=O)C2(CCCC2)NC(=O)[C@@H]2CCCN2C(=O)[C@H](CCc2ccc(C(F)(F)F)c(Cl)c2)NC(=O)CN(C)C(=O)[C@H](Cc2ccc(C)cc2)N(C)C(=O)CN(C)C(=O)CN(C)C1=O [PP0018] ([NMeL]I[Sar][Sar][NMePhe(4-Me)][Sar][hPhe(3-Cl-4-CF3)]P[Ac5c][NMeGly(cPent)][NMeD]-Morpholide; lactam N-11) | C (A compound having a KD ratio of 0.1 or more and less than 3 is denoted as C) | 0.077 | C (A compound having a KD ratio of 0.1 or more and less than 3 is denoted as C)
2 | CC[C@H](C)[C@@H]1NC(=O)[C@H](CC(C)C)N(C)C(=O)C[C@@H](C(=O)N2CCOCC2)N(C)C(=O)[C@H](C2CCCC2)N(C)C(=O)C2(CCCC2)NC(=O)[C@@H]2CCCN2C(=O)[C@H](CCc2ccc(C(F)(F)F)c(Cl)c2)NC(=O)CN(C)C(=O)[C@H](Cc2ccc(C)cc2)N(C)C(=O)CN(CC)C(=O)CN(C)C1=O [PP0019] ([NMeL]I[Sar][NEtG][NMePhe(4-Me)][Sar][hPhe(3-Cl-4-CF3)]P[Ac5c][NMeGly(cPent)][NMeD]-Morpholide; lactam N-11) | C (A compound having a KD ratio of 0.1 or more and less than 3 is denoted as C) | 0.34 | C (A compound having a KD ratio of 0.1 or more and less than 3 is denoted as C)
3 | CCCN1CC(=O)N(C)[C@@H](Cc2ccc(C)cc2)C(=O)N(C)CC(=O)N[C@@H](CCc2ccc(C(F)(F)F)c(Cl)c2)C(=O)N2CCC[C@H]2C(=O)NC2(CCCC2)C(=O)N(C)[C@@H](C2CCCC2)C(=O)N(C)[C@H](C(=O)N2CCOCC2)CC(=O)N(C)[C@@H](CC(C)C)C(=O)N[C@@H]([C@@H](C)CC)C(=O)N(C)CC1=O [PP0020] ([NMeL]I[Sar][NPrGly][NMePhe(4-Me)][Sar][hPhe(3-Cl-4-CF3)]P[Ac5c][NMeGly(cPent)][NMeD]-Morpholide; lactam N-11) | C (A compound having a KD ratio of 0.1 or more and less than 3 is denoted as C) | 0.77 | C (A compound having a KD ratio of 0.1 or more and less than 3 is denoted as C)
4 | CCCCN1CC(=O)N(C)[C@@H](Cc2ccc(C)cc2)C(=O)N(C)CC(=O)N[C@@H](CCc2ccc(C(F)(F)F)c(Cl)c2)C(=O)N2CCC[C@H]2C(=O)NC2(CCCC2)C(=O)N(C)[C@@H](C2CCCC2)C(=O)N(C)[C@H](C(=O)N2CCOCC2)CC(=O)N(C)[C@@H](CC(C)C)C(=O)N[C@@H]([C@@H](C)CC)C(=O)N(C)CC1=O [PP0021] ([NMeL]I[Sar][NBuGly][NMePhe(4-Me)][Sar][hPhe(3-Cl-4-CF3)]P[Ac5c][NMeGly(cPent)][NMeD]-Morpholide; lactam N-11) | C (A compound having a KD ratio of 0.1 or more and less than 3 is denoted as C) | 0.65 | C (A compound having a KD ratio of 0.1 or more and less than 3 is denoted as C)
5 | CC[C@H](C)[C@@H]1NC(=O)[C@H](CC(C)C)N(C)C(=O)C[C@@H](C(=O)N2CCOCC2)N(C)C(=O)[C@H](C2CCCC2)N(C)C(=O)C2(CCCC2)NC(=O)[C@@H]2CCCN2C(=O)[C@H](CCc2ccc(C(F)(F)F)c(Cl)c2)NC(=O)CN(C)C(=O)[C@H](Cc2ccc(C)cc2)N(CC)C(=O)CN(C)C(=O)CN(C)C1=O [PP0022] ([NMeL]I[Sar][Sar][NEtPhe(4-Me)][Sar][hPhe(3-Cl-4-CF3)]P[Ac5c][NMeGly(cPent)][NMeD]-Morpholide; lactam N-11) | B (a compound having 3 or more and less than 10 is denoted as B) | 0.18 | C (A compound having a KD ratio of 0.1 or more and less than 3 is denoted as C)
6 | CC[C@H](C)[C@@H]1NC(=O)[C@H](CC(C)C)N(C)C(=O)C[C@@H](C(=O)N2CCOCC2)N(C)C(=O)[C@H](C2CCCC2)N(C)C(=O)C2(CCCC2)NC(=O)[C@@H]2CCCN2C(=O)[C@H](CCc2ccc(C(F)(F)F)c(Cl)c2)NC(=O)CN(C)C(=O)[C@H](Cc2ccc(C(F)(F)F)cc2)N(CC)C(=O)CN(C)C(=O)CN(C)C1=O [PP0023] ([NMeL]I[Sar][Sar][NEtPhe(4-CF3)][Sar][hPhe(3-Cl-4-CF3)]P[Ac5c][NMeGly(cPent)][NMeD]-Morpholide; lactam N-11) | B (a compound having 3 or more and less than 10 is denoted as B) | 0.14 | C (A compound having a KD ratio of 0.1 or more and less than 3 is denoted as C)
7 | CC[C@H](C)[C@@H]1NC(=O)[C@H](CC(C)C)N(C)C(=O)C[C@@H](C(=O)N2CCOCC2)N(C)C(=O)[C@H](C2CCCC2)N(C)C(=O)C2(CCCC2)NC(=O)[C@@H]2CCCN2C(=O)[C@H](CCc2ccc(C(F)(F)F)c(Cl)c2)NC(=O)CN(C)C(=O)[C@H](C2CCCC2)N(CC)C(=O)CN(C)C(=O)CN(C)C1=O [PP0024] ([NMeL]I[Sar][Sar][X7][Sar][hPhe(3-Cl-4-CF3)]P[Ac5c][NMeGly(cPent)][NMeD]-Morpholide; lactam N-11) | B (a compound having 3 or more and less than 10 is denoted as B) | 5.9 | C (A compound having a KD ratio of 0.1 or more and less than 3 is denoted as C)
8 | CC[C@H](C)[C@@H]1NC(=O)[C@H](CC(C)C)N(C)C(=O)C[C@@H](C(=O)N2CCOCC2)N(C)C(=O)[C@H](C2CCCC2)N(C)C(=O)C2(CCCC2)NC(=O)[C@@H]2CCCN2C(=O)[C@H](CCc2ccc(C(F)(F)F)c(Cl)c2)NC(=O)CN(CC)C(=O)[C@H](Cc2ccc(C)cc2)N(C)C(=O)CN(C)C(=O)CN(C)C1=O [PP0025] ([NMeL]I[Sar][Sar][NMePhe(4-Me)][NEtG][hPhe(3-Cl-4-CF3)]P[Ac5c][NMeGly(cPent)][NMeD]-Morpholide; lactam N-11) | C (A compound having a KD ratio of 0.1 or more and less than 3 is denoted as C) | 2.4 | C (A compound having a KD ratio of 0.1 or more and less than 3 is denoted as C)
9 | CC[C@H](C)[C@@H]1NC(=O)[C@H](CC(C)C)N(C)C(=O)C[C@@H](C(=O)N2CCOCC2)N(C)C(=O)[C@H](C2CCCC2)N(C)C(=O)C2(CCCC2)NC(=O)[C@@H]2CCCN2C(=O)[C@H](CCc2ccc(C(F)(F)F)c(Cl)c2)NC(=O)CN(C)C(=O)[C@H](Cc2ccc(C)cc2)N(CC)C(=O)CN(CC)C(=O)CN(C)C1=O [PP0027] ([NMeL]I[Sar][NEtG][NEtPhe(4-Me)][Sar][hPhe(3-Cl-4-CF3)]P[Ac5c][NMeGly(cPent)][NMeD]-Morpholide; lactam N-11) | C (A compound having a KD ratio of 0.1 or more and less than 3 is denoted as C) | 0.8 | C (A compound having a KD ratio of 0.1 or more and less than 3 is denoted as C)
